Here are results for 31 molecules from ChEMBL document CHEMBL2384927, “Development of Unsymmetrical Dyads As Potent Noncarbohydrate-Based Inhibitors against Human β-N-Acetyl-d-hexosaminidase” (ACS Med Chem Lett, 2013).

The source made the active and inactive calls. The calls are words filed in the database; no cut-off is given here.

The target of one experiment is T1, Beta-N-acetyl-D-hexosaminidase-A/B (Homo sapiens) (UniProt P07686+P06865). The experiment can be described thus: Inhibition of human beta-N-acetyl-D-hexosaminidase-A/B using 4-Methylumbelliferyl N-acetyl-beta-D-glucosaminide as substrate at 50 uM incubated for 10 mins prior to substrate addition by spectrofluorometric analysis relative to control. The experiment is classed as protein assay.
In general, inhibition refers to the percentage by which the read-out fell short of the control. For `NCCN1C(=O)c2cccc3c(Br)ccc(c23)C1=O`, the inhibition was less than 50%.

In turn, `NCCCCCCN1C(=O)c2cccc3cccc(c23)C1=O` returned an inhibition of less than 50%.

As to `COc1cccc(NCCNCCN2C(=O)c3cccc4cccc(c34)C2=O)c1`, the inhibition was less than 50%.

In the case of `CN(C)c1ccc2c3c(cccc13)C(=O)N(CCN)C2=O`, the inhibition was less than 50%.

`O=C1c2cccc3cccc(c23)C(=O)N1CCNCCOc1ccc([N+](=O)[O-])cc1`: the inhibition is less than 50%.

As for `NCCN1C(=O)c2cccc3cccc1c23`, the inhibition was less than 50%.

`COc1ccc(SCCCNCCN2C(=O)c3cccc4cccc(c34)C2=O)cc1`: the inhibition was less than 50%.

The molecule `O=C1c2cccc3cccc(c23)C(=O)N1CCNCCOc1ccc(Cl)cc1` displayed an inhibition of less than 50%.

As for `COc1ccc2c3c(cccc13)C(=O)N(CCN)C2=O`, the inhibition was less than 50%.

On to `NCCN1C(=O)c2ccccc2C1=O`, for which the inhibition was less than 50%.

The molecule `O=C1c2cccc3cccc(c23)C(=O)N1CCNCCOc1ccc(OC(F)(F)F)cc1` gave an inhibition of less than 50%.

For another experiment, the target named is T2, Beta-hexosaminidase subunit alpha (Homo sapiens, UniProt P06865).
T2 sequence (P06865 whole entry): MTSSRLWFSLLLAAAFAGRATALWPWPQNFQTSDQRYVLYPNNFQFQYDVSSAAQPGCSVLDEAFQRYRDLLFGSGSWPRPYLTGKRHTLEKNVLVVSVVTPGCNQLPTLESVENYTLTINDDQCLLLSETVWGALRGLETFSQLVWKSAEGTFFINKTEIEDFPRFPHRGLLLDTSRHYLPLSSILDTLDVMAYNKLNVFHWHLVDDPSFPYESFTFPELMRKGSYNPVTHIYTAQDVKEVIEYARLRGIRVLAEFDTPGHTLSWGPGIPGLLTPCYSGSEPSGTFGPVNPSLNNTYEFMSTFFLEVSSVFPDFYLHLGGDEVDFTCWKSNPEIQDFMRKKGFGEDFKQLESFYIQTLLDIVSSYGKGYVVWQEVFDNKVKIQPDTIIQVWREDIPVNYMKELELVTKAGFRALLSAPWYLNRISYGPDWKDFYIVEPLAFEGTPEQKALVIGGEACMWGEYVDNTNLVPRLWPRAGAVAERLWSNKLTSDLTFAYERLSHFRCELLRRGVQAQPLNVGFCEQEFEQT
Put plainly: Competitive inhibition of human beta-N-acetyl-D-hexosaminidase-A using 4-Methylumbelliferyl N-acetyl-beta-D-glucosaminide as substrate assessed as release of 4-Methylumbelliferyl fluorophore measured for 7 mins.
By IC50 is commonly meant the point on the concentration scale where inhibition reaches its midpoint. Turning to `O=C1c2cccc3cccc(c23)C(=O)N1CCNCCN1C(=O)c2cccc3cccc(c23)C1=O`, the IC50 amounted to 6 µM.

Another experiment concerns the target T1, Beta-N-acetyl-D-hexosaminidase-A/B (Homo sapiens). The experiment can be described thus: Competitive inhibition of human beta-N-acetyl-D-hexosaminidase-A/B using 4-Methylumbelliferyl N-acetyl-beta-D-glucosaminide as substrate at 0.1 mM incubated for 10 mins prior to substrate addition by Dixon plot analysis. The experiment is classed as protein assay.
On to `COc1ccc(CNCCN2C(=O)c3cccc4cccc(c34)C2=O)cc1`, for which the inhibition entry is “Active”.

The next experiment deals with T3, Beta-N-acetyl-D-hexosaminidase-A/B (Homo sapiens, UniProt P07686+P06865).
T3 sequence (P07686 whole entry): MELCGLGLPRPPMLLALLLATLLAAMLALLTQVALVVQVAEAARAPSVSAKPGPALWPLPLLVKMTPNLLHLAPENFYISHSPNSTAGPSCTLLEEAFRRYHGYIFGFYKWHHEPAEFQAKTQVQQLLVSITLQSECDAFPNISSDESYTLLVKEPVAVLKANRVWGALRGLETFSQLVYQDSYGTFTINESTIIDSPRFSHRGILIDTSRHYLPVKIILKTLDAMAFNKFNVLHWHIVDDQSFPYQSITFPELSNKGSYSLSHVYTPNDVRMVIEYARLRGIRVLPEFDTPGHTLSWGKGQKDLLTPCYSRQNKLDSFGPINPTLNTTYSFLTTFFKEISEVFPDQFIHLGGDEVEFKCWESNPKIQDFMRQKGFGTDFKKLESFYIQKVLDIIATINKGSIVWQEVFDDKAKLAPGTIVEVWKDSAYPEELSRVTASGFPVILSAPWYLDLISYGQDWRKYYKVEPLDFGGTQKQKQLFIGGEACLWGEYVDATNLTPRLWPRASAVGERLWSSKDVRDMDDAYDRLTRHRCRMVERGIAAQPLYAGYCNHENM
T3 sequence (P06865 whole entry): T2 sequence (P06865 whole entry)
The experiment can be described thus: Inhibition of human beta-N-acetyl-D-hexosaminidase-A/B using 4-Methylumbelliferyl N-acetyl-beta-D-glucosaminide as substrate incubated for 10 mins prior to substrate addition by spectrofluorometric analysis. Type of experiment: protein assay.
Broadly, the Ki is the dissociation constant of the complex between target and ligand, obtained from inhibition or displacement. A lower Ki goes with a stronger hold on the target. `COc1ccc(SCCNCCN2C(=O)c3cccc4cccc(c34)C2=O)cc1` returned an inhibitory constant (Ki) of 1.13 µM.

Regarding `NCCCCN1C(=O)c2cccc3cccc(c23)C1=O`, the Ki came out at 61.74 µM.

Molecule `NCCN1C(=O)c2cccc3cccc(c23)C1=O` registered a Ki of 2.09 µM. Against the preceding molecule, the Ki is about 30-fold lower.

The molecule `COc1ccc(OCCCNCCN2C(=O)c3cccc4cccc(c34)C2=O)cc1` came in with a Ki of 1.23 µM.

Turning to `O=C1c2cccc3cccc(c23)C(=O)N1CCNCCOc1ccc2c(c1)OCO2`, the Ki is 3 µM.

`COc1cccc(OCCCNCCN2C(=O)c3cccc4cccc(c34)C2=O)c1`: the Ki turned out to be 4.39 µM. The Ki values of the last two molecules are within 1.5-fold of each other.

On to `COc1ccccc1OCCNCCN1C(=O)c2cccc3cccc(c23)C1=O`, for which the Ki stood at 1.35 µM.

In the case of `O=C1c2cccc3cccc(c23)C(=O)N1CCO`, the Ki is 30.87 µM.

`COc1cccc(OCCNCCN2C(=O)c3cccc4cccc(c34)C2=O)c1` yielded an inhibition constant (Ki) of 0.93 µM.

For the molecule `NCCCN1C(=O)c2cccc3cccc(c23)C1=O` [NAPHTHALIMIDOPROPYLAMINE], the Ki stood at 29.08 µM.

In turn, `CN(C)CCN1C(=O)c2cccc3cccc(c23)C1=O` yielded a Ki of 2.81 µM.

Molecule `COc1ccc(NCCNCCN2C(=O)c3cccc4cccc(c34)C2=O)cc1` displayed a Ki of 1.08 µM. This Ki is about 2.6-fold lower than that of the molecule before.

As for `COc1ccc(OCCNCCN2C(=O)c3cccc4cccc(c34)C2=O)cc1OC`, the Ki is 0.69 µM.

On to `COc1cccc(CNCCN2C(=O)c3cccc4cccc(c34)C2=O)c1`, for which the Ki was found to be 6.22 µM.

Molecule `COc1ccc(CNCCN2C(=O)c3cccc4cccc(c34)C2=O)cc1OC` showed a Ki of 4.99 µM.

`COC(=O)c1ccc(OCCNCCN2C(=O)c3cccc4cccc(c34)C2=O)cc1` showed a Ki of 4.2 µM.

For `COc1ccc(CNCCN2C(=O)c3cccc4cccc(c34)C2=O)cc1`, the Ki was determined as 0.63 µM.

The molecule `COc1ccc(NCCNCCN2C(=O)c3cccc4cccc(c34)C2=O)c(OC)c1` registered a Ki of 4.63 µM.

`O=C1c2cccc3cccc(c23)C(=O)N1CCNCCN1C(=O)c2cccc3cccc(c23)C1=O` yielded a Ki of 3.22 µM.

Regarding `COc1ccc(OCCNCCN2C(=O)c3cccc4cccc(c34)C2=O)cc1`, the Ki was 1.04 µM. This Ki lies about 3.1-fold lower than the previous one.

For a further experiment, the target named is T4, Beta-hexosaminidase subunit beta (Homo sapiens, UniProt P07686).
T4 sequence (P07686 whole entry): T3 sequence (P07686 whole entry)
The experiment can be described thus: Competitive inhibition of human beta-N-acetyl-D-hexosaminidase-B using 4-Methylumbelliferyl N-acetyl-beta-D-glucosaminide as substrate assessed as release of 4-Methylumbelliferyl fluorophore measured for 7 mins.
With `O=C1c2cccc3cccc(c23)C(=O)N1CCNCCN1C(=O)c2cccc3cccc(c23)C1=O`, the IC50 was 3.1 µM.
